Data published in US20160151337A1, “ANNELATED PYRROLES AND THEIR USE AS CRAC INHIBITORS” (Grünenthal GmbH, priority 2013, published 2016).

What was measured:
CRAC channel = molecular target: T1, CRAC channel (Homo sapiens, UniProt Q96D31); assay: HEK Calcium Influx Assay (FLIPR), inhibition of store-operated Ca2+ entry after thapsigargin store depletion; assay type: cell-based; conditions: 10 μM compound, HEK293 cells, read-out: % inhib. [@ 10 μM] FLIPR
T1 construct: endogenous in cells; host or cells: HEK293 (ECACC), untransfected
T1 sequence (Q96D31 whole entry): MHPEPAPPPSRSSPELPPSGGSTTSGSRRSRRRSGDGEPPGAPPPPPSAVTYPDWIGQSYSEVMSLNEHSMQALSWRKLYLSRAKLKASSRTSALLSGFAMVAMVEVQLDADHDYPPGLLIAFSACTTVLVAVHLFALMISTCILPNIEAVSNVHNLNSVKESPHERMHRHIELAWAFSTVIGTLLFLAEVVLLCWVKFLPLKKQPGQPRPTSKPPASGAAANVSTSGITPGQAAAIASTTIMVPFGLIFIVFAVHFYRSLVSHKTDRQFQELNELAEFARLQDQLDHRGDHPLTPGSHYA
Protocol: The effect of compounds of the invention on intracellular [Ca^2+] was tested in the HEK293 cell line (ECACC).
HEK293 cells were cultured in DMEM/F12/Glutamax (Gibco) containing 10% FCS (Gibco), and maintained at 37° C., 5% CO2. Cell were split twice a week [3*10^6 (Mon-Thu) and 1*10^6 (Thu-Mon) cells/50 ml medium in 1-175 ZK culture flasks, respectively]. Twenty four hours pre-experiment, cells were seeded on 96 well plates (Poly-D-Lysine 96 well Black/Clear Plate, BD Biocoat REF 356640) at a density of 40,000 cells/well in DMEM/F12 (Gibco) containing 10% FCS (Gibco), and maintained at 37° C., 5% CO2.
Prior to store-depletion, cell culture medium was removed and cells were loaded with the Calcium-sensitive fluorescent dye comprised within the Calcium-4-assay kit (Molecular Devices) in nominally Ca^2+-free HBS buffer (140 mM NaCl, 4 mM KCl, 0.2 mM MgCl2, 11 mM D-glucose, and 10 mM HEPES, pH 7.4) according to manufacturer's instruction for 60 min at 37° C., 5% CO2.
Passive depletion of intracellular Ca^2+-stores was then triggered by employing the SERCA inhibitor thapsigargin (2 μM final) for 10 min in the dark (RT). To prevent immediate Ca^2+-entry via the activated store-operated channels (SOCs), cells were maintained in Ca^2+-free HBS buffer comprising 100 μM EGTA during store-depletion.
Intracellular changes in [Ca^2+] were subsequently monitored with the FLIPR device (Molecular Devices). In brief, baseline imaging post-store depletion was allowed for 1 min before adjusting the extracellular buffer to 3 mM CaCl2. Increases in intracellular [Ca^2+] due to pre-activated SOC channels were monitored for 15 min until intracellular Ca^2+ levels had declined into a steady-state. Finally, compounds were administered, and Ca^2+ signals were recorded for additional 10 min.
Inhibition of endogenous SOC in HEK293 cells was quantified employing the average Ca^2+ signal measured from 9.5-10 min post-administration. Zero percent inhibition (MAX) was defined as the Ca^2+ signal recorded from wells to which DMSO-only had been added instead of compound. Hundred percent inhibition (MIN) was defined as the signal obtained from wells in which cells haven't been treated with TG prior to Ca^2+ addition and to which DMSO-only had been added instead of compound. For routine IC50 determinations of compounds, 8 concentrations of a serial dilution (1:3.16) were tested, starting off from 10 μM. Reliable IC50's could consequently be determined only, if they were at least sub 2.5-3 μM.

[1] = system: Interleukin-2 (IL-2) production/release in Jurkat T cells; assay: Jurkat IL-2 Production Assay (PHA-stimulated, IL-2 AlphaLisa); assay type: cell-based; conditions: Homo sapiens, PHA 15 μg/ml, 22 h, inhibition of IL-2 production
Protocol: The effect of compounds of the invention on Interleukin-2 (IL-2) production/release was tested in the Jurkat T cell line (ECACC) clone E6-1.
Jurkat T cells were cultured in DMEM/F12/Glutamax (Gibco) containing 10% FCS (Gibco), and maintained at 37° C., 5% CO2. Cells were split twice a week [5*10^6 (Mon-Thu) and 1*10^7 (Thu-Mon) cells/50 ml medium in 1-175 ZK culture flasks, respectively].
Prior to experiment, cells were seeded on 96 well plates (Cellstar 96 Well; Cat No. 655180, Greiner bio-one) at a density of 5*10^5 cells/well in DMEM/F12/Glutamax (Gibco) containing 10% FCS (Gibco), and incubated for 60 min at 37° C., 5% CO2. Subsequently, compounds were added and cells were allowed to incubate for 30 min at 37° C., 5% CO2. Cells were then stimulated with 15 μg/ml Phyto-hemagglutinin (PHA; Sigma) for 22 hours at 37° C., 5% CO2.
Before sampling of the supernatants, cells were spun down (200*g/5 min/RT). The amount of IL-2 released into the supernatant was quantified with the human IL-2 AlphaLisa kit (Perkin Elmer) according to manufacturer's instructions. Luminescence proximity measurements were carried out in the Synergy H4 reader (BioTek) employing the fluorescence setting of the reader (ex: 680/30 nm; em: 620/40 nm).
Inhibition of IL-2 production/release in/from Jurkat T cells was quantified as follows: Zero percent inhibition (MAX) was defined as the [IL-2] determined in supernatants derived from cells to which PHA & DMSO-only had been added instead of compound. Hundred percent inhibition (MIN) was defined as the [IL-2] determined in supernatants derived from cells that had been pre-treated with 1 μM CyclosporineA (Sigma) before the addition of 15 μg/ml PHA.
For routine IC50 determinations of compounds, 8 concentrations of a serial dilution (1:3.16) were tested, starting off from 10 μM.

Structure (SMILES)	inhibition at 10 µM (CRAC channel)	IC50 [1]
Cc1cc(C#N)c(F)cc1N1CCc2[nH]c(-c3c(F)cccc3F)cc2C1 [Example 67, 4-[2-(2,6-Difluoro-phenyl)-4,5,6,7-tetrahydro-1H-pyrrolo[3,2-c]pyridin-5-yl]-2-fluoro-5-methyl-benzonitrile]	< 50%	0.5 to 1 µM
CCCCc1cc2c([nH]1)CCN(c1cnc(S(C)(=O)=O)cc1C)C2 [Example 74, 2-Butyl-5-(4-methyl-6-methylsulfonyl-pyridin-3-yl)-4,5,6,7-tetrahydro-1H-pyrrolo[3,2-c]pyridine]	> 70%	1 to 5 µM
Cc1cc(C(F)(F)F)ncc1N1CCc2[nH]c(C3CCCCC3)cc2C1 [Example 97, 2-Cyclohexyl-5-[4-methyl-6-(trifluoromethyl)-pyridin-3-yl]-4,5,6,7-tetrahydro-1H-pyrrolo[3,2-c]pyridine]	50 to 70%	1 to 5 µM
Cc1cc(S(C)(=O)=O)ncc1N1CCc2[nH]c(C3CCC(F)(F)CC3)cc2C1 [Example 122, 2-(4,4-Difluoro-cyclohexyl)-5-(4-methyl-6-methylsulfonyl-pyridin-3-yl)-4,5,6,7-tetrahydro-1H-pyrrolo[3,2-c]pyridine]	50 to 70%	1 to 5 µM
COc1cc(S(C)(=O)=O)ccc1N1CCc2[nH]c(-c3c(F)cccc3F)cc2C1 [Example 28, 2-(2,6-Difluoro-phenyl)-5-(2-methoxy-4-methylsulfonyl-phenyl)-4,5,6,7-tetrahydro-1H-pyrrolo[3,2-c]pyridine]	> 70%	0.5 to 1 µM
Cc1cc(Cl)ccc1N1CCc2[nH]c(-c3c(F)cccc3F)cc2C1 [Example 11, 5-(4-Chloro-2-methyl-phenyl)-2-(2,6-difluoro-phenyl)-4,5,6,7-tetrahydro-1H-pyrrolo[3,2-c]pyridine]	< 50%	0.5 to 1 µM
CCOc1cc(C)c(N2CCc3[nH]c(-c4c(F)cccc4F)cc3C2)cn1 [Example 69, 2-(2,6-Difluoro-phenyl)-5-(6-ethoxy-4-methyl-pyridin-3-yl)-4,5,6,7-tetrahydro-1H-pyrrolo[3,2-c]pyridine]	> 70%	0.5 to 1 µM
Cc1sc(-c2ccn(C)n2)nc1N1CCc2[nH]c(-c3c(F)cccc3F)cc2C1 [Example 99, 4-[2-(2,6-Difluoro-phenyl)-4,5,6,7-tetrahydro-1H-pyrrolo[3,2-c]pyridin-5-yl]-5-methyl-2-(1-methyl-1H-pyrazol-3-yl)-thiazole]	> 70%	< 0.5 µM
Cc1cc(C)c(-c2cc3c([nH]2)CCN(c2cnc(C(F)(F)F)cc2C)C3)cn1 [Example 135, 2-(4,6-Dimethyl-pyridin-3-yl)-5-[4-methyl-6-(trifluoromethyl)-pyridin-3-yl]-4,5,6,7-tetrahydro-1H-pyrrolo[3,2-c]pyridine]	< 50%	0.5 to 1 µM
Fc1cccc(F)c1-c1cc2c([nH]1)CCN(c1cc3c(cc1Cl)OC(F)(F)O3)C2 [Example 9, 5-(6-Chloro-2,2-difluoro-1,3-benzodioxol-5-yl)-2-(2,6-difluoro-phenyl)-4,5,6,7-tetrahydro-1H-pyrrolo[3,2-c]pyridine]	< 50%	1 to 5 µM
Cc1sc(-c2ccccn2)nc1N1CCc2[nH]c(-c3c(F)cccc3F)cc2C1 [Example 6, 4-[2-(2,6-Difluoro-phenyl)-4,5,6,7-tetrahydro-1H-pyrrolo[3,2-c]pyridin-5-yl]-5-methyl-2-pyridin-2-yl-thiazole]	50 to 70%	< 0.5 µM
Cc1cc(S(C)(=O)=O)ncc1N1CCc2[nH]c(-c3c(F)cccc3F)cc2C1 [Example 16, 2-(2,6-Difluoro-phenyl)-5-(4-methyl-6-methylsulfonyl-pyridin-3-yl)-4,5,6,7-tetrahydro-1H-pyrrolo[3,2-c]pyridine]	> 70%	< 0.5 µM
Fc1cccc(F)c1-c1cc2c([nH]1)CCN(c1cnc(C(F)(F)F)cc1C1CC1)C2 [Example 113, 5-[4-Cyclopropyl-6-(trifluoromethyl)-pyridin-3-yl]-2-(2,6-difluoro-phenyl)-4,5,6,7-tetrahydro-1H-pyrrolo[3,2-c]pyridine]	< 50%	< 0.5 µM
CNS(=O)(=O)c1ccc(N2CCc3[nH]c(-c4cnc(C)cc4C)cc3C2)c(C)c1 [Example 127, 4-[2-(4,6-Dimethyl-pyridin-3-yl)-4,5,6,7-tetrahydro-1H-pyrrolo[3,2-c]pyridin-5-yl]-N,3-dimethyl-benzenesulfonic acid amide]	> 70%	1 to 5 µM
Cc1sc(-c2cncnc2)nc1N1CCc2[nH]c(-c3c(F)cccc3F)cc2C1 [Example 30, 4-[2-(2,6-Difluoro-phenyl)-4,5,6,7-tetrahydro-1H-pyrrolo[3,2-c]pyridin-5-yl]-5-methyl-2-pyrimidin-5-yl-thiazole]	> 70%	0.5 to 1 µM
Cc1sc(-c2ncco2)nc1N1CCc2[nH]c(-c3c(F)cccc3F)cc2C1=O [Example 54, 2-(2,6-Difluoro-phenyl)-5-(5-methyl-2-oxazol-2-yl-thiazol-4-yl)-1,5,6,7-tetrahydro-pyrrolo[3,2-c]pyridin-4-one]	> 70%	–
Cc1cc(Cl)ncc1N1CCc2[nH]c(-c3c(F)cccc3Cl)cc2C1=O [Example 45, 2-(2-Chloro-6-fluoro-phenyl)-5-(6-chloro-4-methyl-pyridin-3-yl)-1,5,6,7-tetrahydro-pyrrolo[3,2-c]pyridin-4-one]	> 70%	–
COc1cc(C#N)ccc1N1CCc2[nH]c(-c3c(F)cccc3Cl)cc2C1=O [Example 41, 4-[2-(2-Chloro-6-fluoro-phenyl)-4-oxo-1,5,6,7-tetrahydro-pyrrolo[3,2-c]pyridin-5-yl]-3-methoxy-benzonitrile]	50 to 70%	–
COc1cc(C)c(N2CCc3[nH]c(-c4c(F)cccc4F)cc3C2=O)cn1 [Example 39, 2-(2,6-Difluoro-phenyl)-5-(6-methoxy-4-methyl-pyridin-3-yl)-1,5,6,7-tetrahydro-pyrrolo[3,2-c]pyridin-4-one]	50 to 70%	–
Cc1sc(C2CC2)nc1N1CCc2[nH]c(-c3c(F)cccc3Cl)cc2C1=O [Example 52, 2-(2-Chloro-6-fluoro-phenyl)-5-(2-cyclopropyl-5-methyl-thiazol-4-yl)-1,5,6,7-tetrahydro-pyrrolo[3,2-c]pyridin-4-one]	> 70%	–
Cc1cc(Cl)ncc1N1CCc2[nH]c(-c3c(F)cccc3F)cc2C1=O [Example 38, 5-(6-Chloro-4-methyl-pyridin-3-yl)-2-(2,6-difluoro-phenyl)-1,5,6,7-tetrahydro-pyrrolo[3,2-c]pyridin-4-one]	> 70%	–
CNC(=O)c1ccc(N2CCc3[nH]c(-c4c(F)cccc4F)cc3C2)c(C)c1 [Example 80, 4-[2-(2,6-Difluoro-phenyl)-4,5,6,7-tetrahydro-1H-pyrrolo[3,2-c]pyridin-5-yl]-N,3-dimethyl-benzamide]	> 70%	–
